Laboratory results reported in patent US7869664B2, “Systems and methods for alignment of objects in images” (priority 2007, dated 2011).
Where two headings read alike, the source gives them in different places.

What was measured:
hepatic glutathione = experiment: Endogenous liver metabolite profiling by 1H-13C two-dimensional NMR after acetaminophen exposure; type: in vivo, mouse; details: three hours after acetaminophen administration
Method: Analysis of acetaminophen-induced endogenous metabolite and gene expression changes. Endogenous metabolites and gene expression changes in liver were examined at 0, 3 and 6 hours after acetaminophen exposure in the resistant (SJL) and three sensitive strains (DBA, SMJ and C57) strains in order to identify the pathways and genes contributing to resistance to acetaminophen-induced liver toxicity. The endogenous metabolites were profiled using ^1H—^13C two-dimensional-NMR analysis. Over 400 metabolite peaks were quantified and analyzed by this method, and principal component analysis (PCA) (Duda, 2001, Pattern Classification, John Wiley & Sons, Inc., pp. 568-569, which is hereby incorporated by reference herein) was used to identify metabolite peaks that distinguished the response of the sensitive strain from the three resistant strains. […]
Therefore, the metabolites within the peaks that distinguished the response of the resistant strain from the three sensitive strains at zero and three hours after drug exposure were identified. […] Using resonance assignments and confirmation experiments with purified compounds, the identity of eight of these nine peaks was determined. […]
NMR spectra were recorded at 300°K on a Bruker Avance 600 MHz spectrometer operating at ^1H frequency of 599.99 MHz and ^13C frequency of 150.87 MHz using a 3 mm Nalorac microprobe with z-axis pulsed-field gradient. […]

inbred mouse strains = tested on: inbred mouse strains
Method: For the genetic analysis, the susceptibility of a panel of 16 inbred mouse strains to developing liver toxicity after a single 300 mg/kg intraperitoneal dose of acetaminophen was assessed. This dose is known to cause liver toxicity in mice. During the 24 hour period after dosing, serum alanine aminotransferase (ALT), morbidity and liver histochemistry were assessed as indices of liver toxicity.
Animal husbandry and drug treatment. Seven to eight week old male mice were obtained from Jackson Laboratory (Bar Harbor, Me.) and acclimatized for an additional week before use. The following 16 inbred mouse strains were studied: SJL, LGJ, BALB/cJ, DBA/2J, A/J, AKR/J, A/HeJ, 129/SvJ, B10.D2-H2/oSNJ, C57BL/6J, NZW/LaCJ, NZB/BInJ, MRL/MpJ, C3H/HeJ, LP/J, SM/J. The mice were housed under pathogen-free environment and provided food and water ad libitum with a 12h: 12h light: dark cycle until experimental use. Before each experiment, food was withheld from the animals overnight (greater than sixteen hours) to uniformly deplete hepatic glutathione stores. All mice were administered a single 300 mg/kg intraperitoneal dose of freshly prepared acetaminophen (Voigt Global Distribution Inc.) suspended in PBS (pH 7.4), and were allowed free access to food and water after treatment. The mice were euthanized by CO2 inhalation to collect blood samples and liver tissues at zero, three, and six hours after dosing. The remaining mice were monitored for 48 hours for the occurrence of acetaminophen-induced deaths. Blood samples were withdrawn by cardiac puncture and placed in EDTA-coated tubes, and plasma samples were isolated by centrifugation. Alanine aminotransferase (ALT) activity was measured at the Marshfield Clinic Laboratories (Marshfield, Wis.). Liver tissues were removed immediately and cut into two sections. The smaller section was fixed in buffered formalin, processed by standard histological techniques, stained with hematoxylin and eosin, and examined for histopathologic evidence of liver injury. The remaining sections were snap-frozen in liquid nitrogen and stored at −80° C. for gene expression and metabolite analysis.

[1] = tested on: hepatic acetaminophen-protein adducts; details: resistant SJL strain compared with sensitive C57B6 strain; previously shown; cited from earlier work
[2] = tested on: Ddit3, Dnajb1, and Gadd45ga; experiment: Hepatic gene expression profiles (microarrays) after acetaminophen treatment; type: in vivo, mouse; details: liver; SJL and three sensitive strains
Source text: Differential susceptibility to a hepatotoxic dose of acetaminophen could result from differences in the rate of production of the reactive quinone metabolite that causes liver toxicity. […] Thus, a hepatotoxic dose of acetaminophen induces the formation of protein adducts and activates the DNA damage response in resistant SJL mice to the same extent as in the susceptible strains.
Therefore, the metabolites within the peaks that distinguished the response of the resistant strain from the three sensitive strains at zero and three hours after drug exposure were identified. […] Using resonance assignments and confirmation experiments with purified compounds, the identity of eight of these nine peaks was determined. Three peaks were assigned to glutathione. […] Five other metabolite peaks were assigned to alanine, lactate and betaine. Microarrays were simultaneously used to analyze gene expression in liver obtained from these four strains before (zero hr) and three hours after acetaminophen administration. […] This large number of differentially expressed genes limited the utility of analyzing the gene expression data by itself. However, an integrated analysis of the gene expression and metabolite data provided a more restricted set of pathways and genes to consider. […]

In the case of `CC(=O)Nc1ccc(O)cc1` [acetaminophen], the hepatic glutathione concentration (hepatic glutathione; SJL strain) is reported as “maintained its hepatic glutathione concentration”, the hepatic glutathione levels (hepatic glutathione; three sensitive strains) is reported as “significantly decreased” and the mortality (inbred mouse strains; 15 sensitive strains, single 300 mg/kg intraperitoneal dose) is reported as “mortality in a significant percent of the mice”. For the same molecule, the mortality (inbred mouse strains; C57B6 mice, within six hours after dosing) was 100%, the “time at which mortality occurred after dosing” value (inbred mouse strains; DBA/2 strain) was 48 h and the mortality (inbred mouse strains; SJL mice, single 300 mg/kg intraperitoneal dose) was “no mortality”. For the same molecule, the survival (inbred mouse strains; SJL mice, within forty-eight hours after treatment) was “all SJL mice survived”, the “time at which mortality occurred after dosing” value (inbred mouse strains; SMJ strain) was 24 h and the “increase in serum ALT” value (inbred mouse strains; mouse, in vivo, ip, 300 mg/kg) was “much smaller and transient increase”. The mortality (inbred mouse strains; three sensitive strains (C57BL6, DBA/2, SMJ), within forty-eight hours after treatment) was “at least 60%”, the “hepatic acetaminophen-protein adducts generated” value [1] was “same amount of hepatic acetaminophen-protein adducts” and the “level of expression of three DNA damage response genes (Ddit3, Dnajb1, Gadd45ga)” value [2] was “increased to the same extent in all four strains”.
